Experimental data from paper PMC6685790 (Nature structural & molecular biology, 2008).
Changes are numbered by the printed parent chain. One block for each molecule: values may come before it.

How the values were obtained:
GlyR α1^L64A = biological target: T1, GlyR α1^L64A (Homo sapiens, UniProt P23415, L92A); test: Whole-cell recording of substituted GlyR in HEK cells; type: cell-based
T1 sequence (P23415 29-457 L92A): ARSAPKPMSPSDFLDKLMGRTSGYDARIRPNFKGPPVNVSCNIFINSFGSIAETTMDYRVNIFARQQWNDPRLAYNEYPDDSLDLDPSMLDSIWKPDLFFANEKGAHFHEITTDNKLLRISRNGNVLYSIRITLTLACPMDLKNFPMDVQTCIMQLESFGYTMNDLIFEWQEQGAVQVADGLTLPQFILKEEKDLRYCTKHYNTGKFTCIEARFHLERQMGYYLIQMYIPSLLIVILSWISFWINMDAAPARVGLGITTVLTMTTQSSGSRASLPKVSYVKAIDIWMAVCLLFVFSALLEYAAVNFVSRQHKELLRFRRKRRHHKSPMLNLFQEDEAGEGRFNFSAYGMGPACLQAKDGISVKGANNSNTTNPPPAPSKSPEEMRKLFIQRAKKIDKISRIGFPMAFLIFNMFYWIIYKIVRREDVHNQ

GlyR α1^D114G = GlyR α1^D114G (Homo sapiens, UniProt P23415, D142G); test: as above; type: cell-based; conditions: α1^D114G vs WT
Chain of GlyR α1^D114G (P23415 29-457 D142G): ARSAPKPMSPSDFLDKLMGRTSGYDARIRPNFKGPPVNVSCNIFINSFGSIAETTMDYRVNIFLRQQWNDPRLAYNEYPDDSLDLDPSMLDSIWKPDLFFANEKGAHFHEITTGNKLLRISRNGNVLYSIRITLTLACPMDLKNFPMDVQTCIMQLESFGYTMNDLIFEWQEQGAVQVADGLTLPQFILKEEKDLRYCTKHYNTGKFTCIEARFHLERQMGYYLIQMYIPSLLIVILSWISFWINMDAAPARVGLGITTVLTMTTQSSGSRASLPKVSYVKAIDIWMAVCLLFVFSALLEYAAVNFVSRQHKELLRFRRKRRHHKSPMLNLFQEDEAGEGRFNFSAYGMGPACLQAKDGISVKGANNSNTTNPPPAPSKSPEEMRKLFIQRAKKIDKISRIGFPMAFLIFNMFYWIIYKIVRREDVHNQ

GlyR α1^I132A = biological target: T2, GlyR α1^I132A (Homo sapiens, UniProt P23415, I160A); test: as above; type: cell-based
T2 sequence (P23415 29-457 I160A): T1 sequence (P23415 29-457 L92A) with A64L, I132A

GlyR α1 WT = biological target: T3, GlyR α1 WT (Homo sapiens, UniProt P23415); test: Cell-attached single-channel recording of wild-type GlyR α1 in HEK 293 cells; type: cell-based
T3 sequence (P23415 29-457): T1 sequence (P23415 29-457 L92A) with A64L

GlyR α1^I111A = biological target: T4, GlyR α1^I111A (Homo sapiens, UniProt P23415, I139A); test: Whole-cell recording of substituted GlyR in HEK cells; type: cell-based
T4 sequence (P23415 29-457 I139A): T1 sequence (P23415 29-457 L92A) with A64L, I111A

GlyR α1 F99L = GlyR α1 F99L (Homo sapiens, UniProt P23415, F127L); test: as above; type: cell-based; conditions: same cell
Chain of GlyR α1 F99L (P23415 29-457 F127L): as the sequence (P23415 29-457 D142G) above, with F99L, G114D counted along it

GlyR α1^T112A = GlyR α1^T112A (Homo sapiens, UniProt P23415, T140A); type: cell-based
Chain of GlyR α1^T112A (P23415 29-457 T140A): as the sequence (P23415 29-457 D142G) above, with T112A, G114D counted along it

GlyR α1^F100Y = GlyR α1^F100Y (Homo sapiens, UniProt P23415, F128Y); test: Whole-cell recording of substituted GlyR in HEK cells; type: cell-based; conditions: same cell
Chain of GlyR α1^F100Y (P23415 29-457 F128Y): as the sequence (P23415 29-457 D142G) above, with F100Y, G114D counted along it

GlyR α1 F108Y = GlyR α1 F108Y (Homo sapiens, UniProt P23415, F136Y); test: as above; type: cell-based; conditions: same cell
Chain of GlyR α1 F108Y (P23415 29-457 F136Y): as the sequence (P23415 29-457 D142G) above, with F108Y, G114D counted along it

GlyR α1^L134A, D97A = GlyR α1^L134A, D97A (Homo sapiens, UniProt P23415, D125A/L162A); test: as above; type: cell-based
Chain of GlyR α1^L134A, D97A (P23415 29-457 D125A/L162A): as the sequence (P23415 29-457 D142G) above, with D97A, G114D, L134A counted along it

[1] = test system: Zn^2+-activated GlyRs (ZAGs); type: cell-based, human; conditions: substituted GlyRs, n = 5; close to ECl
[2] = maximal Zn^2+ response as percentage of maximal glycine response in same cell
[3] = read-out: Zn^2+ Activation EC50, direct activation without glycine
[4] = read-out: Zn^2+ Inhibition IC50, modulation of EC50 glycine currents

Glycine Imax (GlyR α1^L64A): 5.6 ± 0.8 nA | Glycine nH (GlyR α1^L64A; Hill slope): 2 ± 0.6 | Increase in glycine sensitivity compared to WT (GlyR α1^D114G): 3 fold | Glycine Imax (GlyR α1^I132A): 6.1 ± 0.7 nA | Glycine nH (GlyR α1^I132A; Hill slope): 2.7 ± 0.4 | Burst durations Area, component 1 (GlyR α1 WT; α1 WT +30 μM Gly): 28 ± 7% | Burst durations Area, component 2 (GlyR α1 WT; α1 WT +30 μM Gly): 22 ± 4% | Burst durations Area, component 3 (GlyR α1 WT; α1 WT +30 μM Gly): 35 ± 5% | Burst durations Area, component 4 (GlyR α1 WT; α1 WT +30 μM Gly): 19 ± 7% | Burst durations τB, component 1 (GlyR α1 WT; α1 WT +30 μM Gly): 0.3 ± 0.06 ms | Burst durations τB, component 2 (GlyR α1 WT; α1 WT +30 μM Gly): 1.4 ± 0.6 ms | Burst durations τB, component 3 (GlyR α1 WT; α1 WT +30 μM Gly): 6.9 ± 2.2 ms | Burst durations τB, component 4 (GlyR α1 WT; α1 WT +30 μM Gly): 63.4 ± 14.8 ms | Closed times Area, component 1 (GlyR α1 WT; α1 WT +30 μM Gly): 44 ± 16% | Closed times Area, component 2 (GlyR α1 WT; α1 WT +30 μM Gly): 35 ± 15% | Closed times Area, component 3 (GlyR α1 WT; α1 WT +30 μM Gly): 8 ± 1% | Closed times Area, component 4 (GlyR α1 WT; α1 WT +30 μM Gly): 10 ± 2% | Closed times Area, component 5 (GlyR α1 WT; α1 WT +30 μM Gly): 4 ± 1% | Closed times τC, component 1 (GlyR α1 WT; α1 WT +30 μM Gly): 0.22 ± 0.03 ms | Closed times τC, component 2 (GlyR α1 WT; α1 WT +30 μM Gly): 0.90 ± 0.24 ms | Closed times τC, component 3 (GlyR α1 WT; α1 WT +30 μM Gly): 4.3 ± 1.6 ms | Closed times τC, component 4 (GlyR α1 WT; α1 WT +30 μM Gly): 109 ± 6.2 ms | Closed times τC, component 5 (GlyR α1 WT; α1 WT +30 μM Gly): 2200 ± 1000 ms | Open times Area, component 1 (GlyR α1 WT; α1 WT +30 μM Gly): 36 ± 11% | Open times Area, component 2 (GlyR α1 WT; α1 WT +30 μM Gly): 39 ± 3% | Open times Area, component 3 (GlyR α1 WT; α1 WT +30 μM Gly): 26 ± 10% | Open times τO, component 2 (GlyR α1 WT; α1 WT +30 μM Gly): 1.5 ± 0.2 ms | Open times τO, component 3 (GlyR α1 WT; α1 WT +30 μM Gly): 8.9 ± 2.1 ms | Open times τO, component 1 (GlyR α1 WT; α1 WT +30 μM Gly, +60 mV pipette potential): 0.28 ± 0.029 ms | Estimated single channel conductance (GlyR α1 WT; α1 WT activated by glycine): ~ 60 pS | PO (open probability within clusters/bursts) (GlyR α1 WT; α1 WT activated by glycine): 0.9 ± 0.03 | Single channel Amplitude (GlyR α1 WT; α1 WT activated by glycine, +60 mV pipette potential): 4 – 5 pA | Single channel Amplitude (GlyR α1 WT; α1 WT activated by glycine, +60 mV pipette potential, listed as Gly): 4.5 ± 0.7 pA | Glycine Imax (GlyR α1^I111A): 4.6 ± 0.8 nA | Glycine nH (GlyR α1^I111A; Hill slope): 1.3 ± 0.2
SMILES: NCC(=O)O [Glycine, glycine]

Zn^2+ Activation nH (GlyR α1^L64A; Hill slope): 1.1 ± 0.4 | Zn^2+ Activation Relative efficacy (% Gly Imax) (GlyR α1^L64A; [2]): 10 ± 3 % Gly Imax | EC50 (GlyR α1^L64A; [3]): 1.5 ± 1.3 µM | IC50 (GlyR α1^L64A; [4]): 70 ± 9 µM | Zn^2+ Activation nH (GlyR α1^I132A; Hill slope): 1.2 ± 0.1 | Zn^2+ Activation Relative efficacy (% Gly Imax) (GlyR α1^I132A; [2]): 72 ± 5 % Gly Imax | EC50 (GlyR α1^I132A; [3]): 140 ± 30 µM | IC50 (GlyR α1^I132A; [4]): > 1000 µM | Maximal Zn^2+ (1 mM)-activated current normalised to glycine Imax (10 mM) (GlyR α1 F99L): < 2 % Gly Imax | Zn^2+ activation (GlyR α1^T112A): highly-sensitive and efficacious ZAG | Maximal Zn^2+ (1 mM)-activated current normalised to glycine Imax (10 mM) (GlyR α1^F100Y): < 2 % Gly Imax | Maximal Zn^2+ (1 mM)-activated current normalised to glycine Imax (10 mM) (GlyR α1 F108Y): < 2 % Gly Imax | Zn^2+ activation (GlyR α1^L134A, D97A): no detectable activation | Zn^2+ Activation nH (GlyR α1^I111A; Hill slope): 0.7 ± 0.2 | Zn^2+ Activation Relative efficacy (% Gly Imax) (GlyR α1^I111A; [2]): 83 ± 3 % Gly Imax | EC50 (GlyR α1^I111A; [3]): 470 ± 130 µM | IC50 (GlyR α1^I111A; [4]): > 1000 µM
SMILES: [Zn+2] [Zn^2+]
Reversal potential of Zn^2+-activated currents [1]: 0.4 ± 1.4 mV
